Experimental data reported in paper PMC7101335, “Aryl-alkyl-lysines: Novel agents for treatment of C. difficile infection” (Scientific Reports, 2020).
≈ marks a conversion by molar mass, not a printed value. Where two headings read alike, the source gives them in different places.

Legend:
Clostridium difficile = assay: Broth microdilution MIC against Clostridium difficile strains; format: cell-based; settings: Clostridioides difficile
Experimental: The broth microdilution assay was utilized following the Clinical and Laboratory Standards Institute (CLSI) guidelines with slight modifications. Briefly, C. difficile strains were grown on anaerobic blood agar plates (Becton Dickinson, BD) and suspended in brain heart infusion supplemented broth (Brain heart infusion medium, BD, supplemented with yeast extract, L-cysteine, Vitamin K1 and Hemin, Sigma) to achieve a bacterial concentration of ~10^5 CFU/ml. The bacterial suspension was seeded in 96-well plates containing drugs/compounds, in duplicate, at the required concentration. Plates were then incubated at 37 °C anaerobically for 48 hours. MICs reported are the lowest concentration of each agent that inhibited the visual growth of bacteria.

E. faecalis = assay: Broth microdilution MIC against E. faecalis strains; format: cell-based; settings: Enterococcus faecalis, read-out: Minimum inhibitory concentration
E. faecium = assay: Broth microdilution MIC against E. faecium strains; format: cell-based; settings: Enterococcus faecium, read-out: Minimum inhibitory concentration
[1] = tested on: human ileocecal colorectal adenocarcinoma cell line (HRT-18); assay: Cytotoxicity, MTS assay, HRT-18 cells; format: cell-based; settings: HRT-18 cells, 32 µg mL^−1, 2 hours, relative to DMSO
Experimental: Briefly, ~2 × 10^4 cells suspended in 100 µL of RPMI-1640 supplemented with 10% horse serum were seeded in a 96-well plate and incubated at 37 °C with 5% CO2. The cells were cultured for 24 hours until reaching ~90% confluency. The cells were further incubated with the aforementioned concentrations of the compounds for 2 hours. Afterwards, culture media were discarded and the cells in each well were washed with PBS and 100 µL of cell culture media were added prior to addition of the assay reagent MTS 3-(4,5-dimethylthiazol-2-yl)-5-(3-carboxymethoxyphenyl)-2-(4-sulfophenyl)-2H-tetrazolium) (Promega). The plates were incubated for 4 hours at 37 °C in a humidified 5% CO2 atmosphere. The absorbance was recorded at 490 nm and the corrected absorbance readings (actual absorbance readings for each treatment subtracted from background absorbance) were taken using a kinetic ELISA microplate reader (SpectraMax i3x, Molecular Devices, Sunnyvale, CA, USA). The quantity of viable cells after treatment with each compound was expressed as a percentage of the control, DMSO. Asterisk (*) denotes a significant difference from the DMSO-treated cells using 2-way analysis of variance (ANOVA) followed by Dunnett’s pairwise comparison.

[2] = Caco-2 bidirectional permeability assay; format: in vitro ADME, human; settings: human, Caco-2, two hours
Experimental: (§1) The Caco-2 bidirectional permeability assay was conducted as described in previous reports[29],[30],[41],[42]. The Caco-2 cell line is similar to human enterocytes and expresses P-glycoprotein and other relevant metabolic enzymes that affect absorption of orally-administered xenobiotics across the intestinal mucosa[34],[43],[44]. Caco-2 cells were grown in tissue culture flasks, trypsinized (by rinsing cells with phosphate-buffered saline and then treating with trypsin-EDTA for 5–10 minutes at 37 °C with 5% CO2 until cells detached), suspended in Dulbecco’s Modified Eagle Medium with 10% fetal bovine serum, 1% nonessential amino acids and penicillin-streptomycin, and then seeded onto wells of a Millipore 96-well Caco-2 plate. Cells were cultured at 37 °C with 5% CO2 until confluent (approximately three weeks) and media was changed at relevant time points. For Apical to Basolateral (A → B) permeability, the test article was added to the apical (A) compartment and the amount of permeation (Papp, as calculated below) to the basolateral (B) compartment was determined; for Basolateral to Apical (B → A) permeability, the test article was added to the B compartment and the amount of permeation to the A compartment was determined. […] Caco-2 cells were incubated with these buffers for two hours, and the receiver side buffer was removed for analysis by LC/MS/MS. To verify the tight junctions and integrity of Caco-2 cell monolayers, aliquots of the cell buffers were analyzed by fluorescence (Lucifer yellow transport ≤ 2%). Any deviations from control values are reported. Data are expressed as permeability (Papp) = (dQ/dt)/(C0A) where dQ/dt is the rate of permeation, C0 is the initial concentration of test agent, and A is the area of the monolayer.

Caco-2 monolayer = assay: Caco-2 bidirectional permeability assay; format: in vitro ADME, human; settings: Caco-2 bidirectional
Experimental: as §1

[3] = tested on: vancomycin-resistant and vancomycin-susceptible strains of Enterococcus; assay: Broth microdilution MIC against Enterococcus strains (E. faecalis and E. faecium, summary in text); format: cell-based; settings: all E. faecalis and E. faecium strains tested, vancomycin-resistant and -sensitive
human erythrocytes = tested on: human erythrocytes; design: method as in PMID 24479371; settings: concentration at which 50% of human erythrocytes are lysed; cited from earlier work

Structure (SMILES): CCCCCCCCCCN(Cc1cccc2ccccc12)C(=O)[C@@H](N)CCCCN [NCK-10]
- MIC (Clostridium difficile; C. difficile Isolate 1 (NR-13427), read-out: Minimum inhibitory concentration): 2 µg/mL (≈ 4.7 µM)
- MIC (Clostridium difficile; C. difficile Isolate 2 (NR-13428), read-out: Minimum inhibitory concentration): 1 µg/mL (≈ 2.35 µM)
- MIC (Clostridium difficile; C. difficile Isolate 4 (NR-13430), read-out: Minimum inhibitory concentration): 2 µg/mL (≈ 4.7 µM)
- MIC (Clostridium difficile; C. difficile Isolate 6 (NR-13432), read-out: Minimum inhibitory concentration): 1 µg/mL (≈ 2.35 µM)
- MIC (Clostridium difficile; C. difficile Isolate 9 (NR-13435), read-out: Minimum inhibitory concentration): 1 µg/mL (≈ 2.35 µM)
- MIC (Clostridium difficile; C. difficile Isolate 10 (NR-13436), read-out: Minimum inhibitory concentration): 1 µg/mL (≈ 2.35 µM)
- MIC (Clostridium difficile; C. difficile P2 (NR-32883), read-out: Minimum inhibitory concentration): 1 µg/mL (≈ 2.35 µM)
- MIC (Clostridium difficile; C. difficile P4 (NR-32889), read-out: Minimum inhibitory concentration): 2 µg/mL (≈ 4.7 µM)
- MIC (Clostridium difficile; C. difficile P8 (NR-32888), read-out: Minimum inhibitory concentration): 1 µg/mL (≈ 2.35 µM)
- MIC (Clostridium difficile; C. difficile P13 (NR-32891), read-out: Minimum inhibitory concentration): 2 µg/mL (≈ 4.7 µM)
- MIC (Clostridium difficile; C. difficile P20 (NR-32896), read-out: Minimum inhibitory concentration): 1 µg/mL (≈ 2.35 µM)
- MIC (Clostridium difficile; C. difficile P21 (NR-32897), read-out: Minimum inhibitory concentration): 1 µg/mL (≈ 2.35 µM)
- MIC (Clostridium difficile; C. difficile P29 (NR-32903), read-out: Minimum inhibitory concentration): 1 µg/mL (≈ 2.35 µM)
- MIC (Clostridium difficile; C. difficile strains P8, P13 and Isolate 10): 1 to 2 µg/mL (≈ 2.35 to 4.7 µM)
- MIC (Clostridium difficile; across all tested strains of C. difficile): 0.5 to 2 µg/mL (≈ 1.17 to 4.7 µM)
- MIC (Clostridium difficile; most strains of C. difficile tested, read-out: MIC): ≤ 1 µg/mL
- MIC (Clostridium difficile; read-out: Minimum inhibitory concentration, C. difficile Isolate 5 (NR-13431)): ≤ 0.5 µg/mL
- MIC (Clostridium difficile; read-out: Minimum inhibitory concentration, C. difficile P15 (NR-32892)): ≤ 0.5 µg/mL
- MIC (Clostridium difficile; the rest of the C. difficile strains): 1 µg/mL (≈ 2.35 µM)
- MIC (E. faecalis; E. faecalis B3196): 2 µg/mL (≈ 4.7 µM)
- MIC (E. faecalis; E. faecalis B3286): 2 µg/mL (≈ 4.7 µM)
- MIC (E. faecalis; E. faecalis B3336): 2 µg/mL (≈ 4.7 µM)
- MIC (E. faecalis; E. faecalis SF24397): 2 µg/mL (≈ 4.7 µM)
- MIC (E. faecalis; E. faecalis SF28073 (vancomycin-resistant)): 2 µg/mL (≈ 4.7 µM)
- MIC (E. faecium; E. faecium E417 (vancomycin-resistant)): < 1 µg/mL
- MIC (E. faecium; E. faecium E1071): 2 µg/mL (≈ 4.7 µM)
- MIC (E. faecium; E. faecium UAA714): 2 µg/mL (≈ 4.7 µM)
- cells survived [1]: 60%
- Papp A→B at 2 h ([2]; apical (pH 6.5) to basolateral (pH 7.4)): < 0.01 ×10⁻⁶ cm/s
- Papp B→A at 2 h ([2]; basolateral to apical): 3.26 ×10⁻⁶ cm/s
- Notes (permeability class) (Caco-2 monolayer): Limited permeability
- MIC [3]: ≤ 2 µg/mL
- hemolytic concentration 50 (HC50) (human erythrocytes): 95 µg/mL
